{"source": "PubChem BioAssay AID1033", "about": "(Sanford-Burnham Center for Chemical Genomics, 2008)", "note": "Calls of active or inactive are those of the source. How the calls were made is not given here.", "data": [{"target": "Chaperone protein DnaK (Escherichia coli (strain K12)) (UniProt P0A6Y8)", "sequence (P0A6Y8 whole entry, looked up)": "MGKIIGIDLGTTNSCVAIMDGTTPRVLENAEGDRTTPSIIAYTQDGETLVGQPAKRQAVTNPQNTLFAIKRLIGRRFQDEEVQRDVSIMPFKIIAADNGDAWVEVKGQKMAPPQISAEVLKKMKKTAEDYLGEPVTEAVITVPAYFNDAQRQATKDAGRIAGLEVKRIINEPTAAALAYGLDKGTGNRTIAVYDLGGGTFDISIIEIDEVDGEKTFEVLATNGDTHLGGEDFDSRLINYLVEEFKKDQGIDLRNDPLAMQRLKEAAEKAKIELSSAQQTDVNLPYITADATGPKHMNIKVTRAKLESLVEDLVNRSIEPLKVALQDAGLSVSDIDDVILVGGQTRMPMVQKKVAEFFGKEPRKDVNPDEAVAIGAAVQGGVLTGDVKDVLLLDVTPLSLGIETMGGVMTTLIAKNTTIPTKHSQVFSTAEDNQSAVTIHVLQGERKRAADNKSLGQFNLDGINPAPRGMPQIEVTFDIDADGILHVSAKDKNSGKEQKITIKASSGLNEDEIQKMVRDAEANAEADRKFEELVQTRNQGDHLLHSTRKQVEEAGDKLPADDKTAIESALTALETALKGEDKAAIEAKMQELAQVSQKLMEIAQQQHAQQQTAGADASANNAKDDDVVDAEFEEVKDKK", "assay": "E. coli DnaK SBD ligand binding – biophysical, NMR, chaperone (AID 1033)", "settings": "Purified DnaK SBD", "values": [{"smiles": "Cc1csc2nc(N)nn12", "Kd": "> 4 mM (inactive)"}, {"smiles": "Cc1nn(CC(=O)Nc2ccccc2)c(=O)c2ccccc12", "Kd": "> 4 mM (inactive)"}, {"smiles": "COc1ccc(Cc2nccc3cc(OC)c(OC)cc23)cc1OC", "Kd": "> 4 mM (inactive)"}, {"smiles": "CC(C)c1ccccc1NC(=O)c1cnccn1", "Kd": "> 4 mM (inactive)"}, {"smiles": "COCCn1c(SC)nc2c1c(=O)[nH]c(=O)n2C", "Kd": "> 4 mM (inactive)"}, {"smiles": "Cc1cc(C(=O)NCc2cccnc2)cs1", "Kd": "> 4 mM (inactive)"}, {"smiles": "Nc1nc2ccccc2n1CCN1CCCC1", "Kd": "> 4 mM (inactive)"}, {"smiles": "C=C[C@@H](C1=CC(=O)C(OC)=C(OC)C1=O)c1ccccc1", "Kd": "> 4 mM (inactive)"}, {"smiles": "O=C(O)c1ccc2snnc2c1", "Kd": "> 4 mM (inactive)"}, {"smiles": "Nc1ccccc1C(=O)CC(N)C(=O)O", "note": "(configuration not stated)", "Kd": "> 4 mM (inactive)"}, {"smiles": "Cc1cc(C(=O)Nc2ccccn2)no1", "Kd": "> 4 mM (inactive)"}, {"smiles": "Cc1cc(SCC(=O)Nc2nccs2)nc(=O)[nH]1", "Kd": "> 4 mM (inactive)"}, {"smiles": "O=c1[nH]cc(COCc2ccccc2)c(=O)[nH]1", "Kd": "> 4 mM (inactive)"}, {"smiles": "Cc1ccccc1NC(=O)CC1SC(N)=NC1=O", "note": "(configuration not stated)", "Kd": "> 4 mM (inactive)"}, {"smiles": "O=C(/C=C/c1ccco1)NC1=NCCS1", "Kd": "> 4 mM (inactive)"}, {"smiles": "COC(=O)c1oc2ccc(Cl)cc2c1NC(C)=O", "Kd": "> 4 mM (inactive)"}, {"smiles": "COc1nc(C)ccc1-c1noc(-c2ccco2)n1", "Kd": "> 4 mM (inactive)"}, {"smiles": "Clc1ccccc1OCCn1ccnc1", "Kd": "> 4 mM (inactive)"}, {"smiles": "O=c1[nH]c2ccccc2c(=O)n1CCCO", "Kd": "> 4 mM (inactive)"}, {"smiles": "O=C(O)Cc1n[nH]c(=O)c2ccccc12", "Kd": "> 4 mM (inactive)"}, {"smiles": "NC(CC(=O)O)C(=O)Nc1ccc(Cl)cc1", "note": "(configuration not stated)", "Kd": "> 4 mM (inactive)"}, {"smiles": "CC(=O)c1c(C)nc2ccccc2c1N", "Kd": "> 4 mM (inactive)"}, {"smiles": "O=S(=O)(O)c1cc[n+]([O-])cc1", "Kd": "> 4 mM (inactive)"}, {"smiles": "C=C(C)[C@@H]1[C@H]2OC(=O)[C@@H]1[C@]1(O)C[C@H]3O[C@]34C(=O)O[C@H]2[C@]14C", "Kd": "> 4 mM (inactive)"}, {"smiles": "COCCn1c(N)nc2c1c(=O)[nH]c(=O)n2C", "Kd": "> 4 mM (inactive)"}, {"smiles": "COc1ccc2c(c1OC)C(=O)O[C@H]2[C@H]1c2cc3c(cc2CCN1C)OCO3", "Kd": "> 4 mM (inactive)"}, {"smiles": "COC(=O)c1ccc(/C=C2/NC(=S)NC2=O)cc1", "Kd": "> 4 mM (inactive)"}, {"smiles": "c1ccc(-c2csc3ncn4nnnc4c23)cc1", "Kd": "> 4 mM (inactive)"}, {"smiles": "C[C@@H]1CC[C@@]23CCC4(C)[C@@](C=CC5[C@@]6(C)CC[C@H](O)C(C)(C)C6CC[C@]54C)(OC2=O)C3[C@H]1C", "note": "(some centres not stated)", "Kd": "> 4 mM (inactive)"}, {"smiles": "Nc1nc(=S)n2c(n1)oc1ccccc12", "Kd": "> 4 mM (inactive)"}, {"smiles": "O=C(O)c1ccc2ccccc2n1", "Kd": "> 4 mM (inactive)"}, {"smiles": "Cc1cc(O)cc(=O)n1CCCC(=O)O", "Kd": "> 4 mM (inactive)"}, {"smiles": "Clc1ccc(-n2ccnc2)nn1", "Kd": "> 4 mM (inactive)"}, {"smiles": "Cn1nc(C(=O)NC2CCCCC2)c2ccccc2c1=O", "Kd": "> 4 mM (inactive)"}, {"smiles": "CNC(=O)CC1Sc2ccccc2NC1=O", "note": "(configuration not stated)", "Kd": "> 4 mM (inactive)"}, {"smiles": "Cn1c(NCC(=O)O)nc2c1c(=O)[nH]c(=O)n2C", "Kd": "> 4 mM (inactive)"}, {"smiles": "CC(=O)O[C@H]1C[C@@]2(C)[C@@H](C[C@@H](O)C3[C@]2(C)CC[C@H]2[C@H](C)[C@H](O)CC[C@]32C)/C1=C(/CCC=C(C)C)C(=O)O", "note": "(some centres not stated)", "Kd": "> 4 mM (inactive)"}, {"smiles": "O=C(O)c1ccc(N2CCOCC2)nc1", "Kd": "> 4 mM (inactive)"}, {"smiles": "Cc1[nH]n(-c2ccccc2)c(=O)c1[N+](=O)[O-]", "Kd": "> 4 mM (inactive)"}, {"smiles": "O=C(O)c1ccc(NC(=O)c2cccs2)cc1", "Kd": "> 4 mM (inactive)"}, {"smiles": "O=C(Nc1nncs1)C1(c2ccccc2)CCCC1", "Kd": "> 4 mM (inactive)"}, {"smiles": "NC(=O)c1ccc(NC(=O)c2ccco2)cc1", "Kd": "> 4 mM (inactive)"}, {"smiles": "CC(=O)C1CCC2C3CCC4C[C@H](O)CCC4(C)C3C[C@H](O)C12C", "note": "(some centres not stated)", "Kd": "> 4 mM (inactive)"}, {"smiles": "CC(CC(O)C1OC1(C)C)[C@@H]1CCC2(C)C3=CCC4C(C)(C)C(=O)CCC4(C)C3CC[C@@]12C", "note": "(some centres not stated)", "Kd": "> 4 mM (inactive)"}, {"smiles": "CN(C)C(=O)N1CCN(C(=O)c2ccco2)CC1", "Kd": "> 4 mM (inactive)"}, {"smiles": "COc1cc2cc3c4cc(OC)c(OC)cc4cc[n+]3c(C)c2cc1OC", "Kd": "> 4 mM (inactive)"}, {"smiles": "O=C(O)CNCC(O)Cn1c2ccccc2c2ccccc21", "note": "(configuration not stated)", "Kd": "> 4 mM (inactive)"}, {"smiles": "O=C1NC(=S)N/C1=C\\c1ccccc1", "Kd": "> 4 mM (inactive)"}, {"smiles": "Cc1onc(-c2ccccc2)c1CN", "Kd": "> 4 mM (inactive)"}, {"smiles": "Nc1nc2n(c1C(=O)c1ccccc1)CCC2", "Kd": "> 4 mM (inactive)"}, {"smiles": "O=c1cc(-c2ccccc2)oc2cc(O)c(O)c(O)c12", "Kd": "> 4 mM (inactive)"}, {"smiles": "Oc1ccccc1-c1cc(C(F)(F)F)[nH]n1", "Kd": "> 4 mM (inactive)"}, {"smiles": "COc1cc(C(=O)NCC2CCCO2)cc(OC)c1OC", "note": "(configuration not stated)", "Kd": "> 4 mM (inactive)"}, {"smiles": "CC(=O)NC(=S)Nc1ccc(N(C)C(C)=O)cc1", "Kd": "> 4 mM (inactive)"}, {"smiles": "O=C1C=CC(=O)c2c(O)cccc21", "Kd": "> 4 mM (inactive)"}, {"smiles": "Cc1nc2ccc(C(=O)O)cc2nc1C", "Kd": "> 4 mM (inactive)"}, {"smiles": "Cc1ccc(C(=O)N2CCOCC2)cc1Cl", "Kd": "> 4 mM (inactive)"}, {"smiles": "O=S1(=O)C=CC(Nc2ccccc2)C1", "note": "(configuration not stated)", "Kd": "> 4 mM (inactive)"}, {"smiles": "O=C1NC(=O)C(c2ccccc2)C(=O)N1", "Kd": "> 4 mM (inactive)"}, {"smiles": "O=C(O)CCC(=O)Nc1nccs1", "Kd": "> 4 mM (inactive)"}, {"smiles": "Cc1ccccc1NC(=O)c1ccccc1", "Kd": "inactive"}, {"smiles": "O=C(CO)N/N=C/c1ccccc1F", "Kd": "> 4 mM (inactive)"}, {"smiles": "CC1/C(=N/O)C[C@@H]2C[C@H]1C2(C)C", "note": "(some centres not stated)", "Kd": "> 4 mM (inactive)"}, {"smiles": "Cc1ccc(C(=O)N2CC(=O)NC(=O)C2)cc1", "Kd": "> 4 mM (inactive)"}, {"smiles": "Cc1nnc(C)n1/N=C/c1cccs1", "Kd": "> 4 mM (inactive)"}, {"smiles": "O=C(/C=C(\\O)c1ccccc1)c1ccccc1O", "Kd": "> 4 mM (inactive)"}, {"smiles": "O=C(c1ccco1)N1CCN(Cc2cccc(F)c2)CC1", "Kd": "> 4 mM (inactive)"}, {"smiles": "O=C1C2CC=CCC2C(=O)N1c1ccccc1O", "note": "(configuration not stated)", "Kd": "> 4 mM (inactive)"}, {"smiles": "CC(=O)Nc1ccc(S(=O)(=O)NC2=NCCS2)cc1", "Kd": "> 4 mM (inactive)"}, {"smiles": "CN1CCC(N2CCOCC2)CC1", "Kd": "> 4 mM (inactive)"}, {"smiles": "c1ccc2[nH]c(NCCN3CCOCC3)nc2c1", "Kd": "> 4 mM (inactive)"}, {"smiles": "Cc1nc2ccc(C(=O)O)cc2[nH]1", "Kd": "> 4 mM (inactive)"}, {"smiles": "Cc1cc(C)n(CCC(=O)O)n1", "Kd": "> 4 mM (inactive)"}, {"smiles": "c1ccc(Cc2nnc3sc(-c4cccnc4)nn23)cc1", "Kd": "> 4 mM (inactive)"}, {"smiles": "O=C1C2C3CCC(O3)C2C(=O)N1c1ccccc1", "note": "(configuration not stated)", "Kd": "> 4 mM (inactive)"}, {"smiles": "CC(NC(=O)c1ccco1)C1CCCO1", "note": "(configuration not stated)", "Kd": "> 4 mM (inactive)"}, {"smiles": "CSc1ncnc2nc[nH]c12", "Kd": "> 4 mM (inactive)"}, {"smiles": "OCC1CN(Cc2ccccc2)CCO1", "note": "(configuration not stated)", "Kd": "> 4 mM (inactive)"}, {"smiles": "Nc1nc(-c2cccnc2)nn1C(=O)Cc1ccccc1", "Kd": "> 4 mM (inactive)"}, {"smiles": "O=C(O)C1CC(C2CCCCN2)CN2CCCCC12", "note": "(configuration not stated)", "Kd": "> 4 mM (inactive)"}, {"smiles": "NCc1ccc(-c2csnn2)cc1", "Kd": "> 4 mM (inactive)"}, {"smiles": "O=C(NCc1ccco1)c1cccc(F)c1", "Kd": "> 4 mM (inactive)"}, {"smiles": "Cc1ccccc1CSc1nnc(C)n1N", "Kd": "> 4 mM (inactive)"}, {"smiles": "N#CCN1C(=O)c2ccccc2S1(=O)=O", "Kd": "> 4 mM (inactive)"}, {"smiles": "Cc1cc(C)nc(Nc2n[nH]c(Cc3ccccc3)n2)n1", "Kd": "> 4 mM (inactive)"}, {"smiles": "COC(=O)c1cccc(C(F)(F)F)c1", "Kd": "> 4 mM (inactive)"}, {"smiles": "Cc1cc(C)n(S(=O)(=O)c2cc(C)c(C)cc2C)n1", "Kd": "> 4 mM (inactive)"}]}]}
